Assay results: paper PMC7167990, “Therapeutic Effects of Atranorin towards the Proliferation of Babesia and Theileria Parasites” (Pathogens, 2020)
Like-named read-outs stand apart in the source and are kept apart here.

Experiments:
B. caballi = assay: In vitro growth inhibition, Babesia fluorescent (SYBR Green I) assay; type: cell-based; conditions: Babesia caballi, 96 h, 4 days culture, mean of triplicate experiments
Experimental: (§1) Babesia parasite was incubated and maintained at 37 °C in a humidifying chamber under 5% CO2, 5% O2, and 90% N2 atmosphere using a microaerophilic stationary-phase culture for conducting the in vitro experiment. Briefly, Germany strain Babesia divergens was cultured in cattle RBCs in Roswell Park Memorial Institute 1640 (RPMI 1640; Sigma-Aldrich, St. Louis, MO, USA) medium replenished with 40% cattle serum, while culture medium 199 (M199; Sigma-Aldrich) was utilized for the Argentina strain B. bigemina and Texas strain B. bovis, and T. equi USDA strain cultured in cattle RBCs supplemented with 40% cattle serum and horse RBCs maintained in hypoxanthine (MP Biomedicals, Santa Ana, CA, USA; final concentration 13.6 μg/mL) and 40% horse serum, respectively. GIT medium complemented with 40% horse serum was used as a growth medium for the USDA strain of B. caballi cultured in horse RBCs. To ensure free-bacterial contamination, amphotericin B (0.15 μg/mL) (Sigma-Aldrich), streptomycin (60 U/mL) and penicillin G (60 U/mL) were added to all medium.
(§2) The Babesia fluorescent assay was carried out on the in vitro culture as previously reported elsewhere to assess the growth of the inhibitory effectiveness of ATR and the combination treatment with DA, CF, and AV. Briefly, in three separate trials, using two-fold dilution, different concentrations of ATR, DA, CF, and AV were prepared in the culture medium and added in 96-well plates in triplicate with 1% parasitemia for T. equi, B. divergens and B. caballi at 5% HCT, while for B. bigemina and B. bovis using 2.5% HCT. The drug combined efficacy was conducted at the same time with the single-treatment assay in accordance with the Chou–Talalay method. […] On day four of culture, an aliquot (100 µL) of lysis buffer mixed with 0.2μL/mL SG1 was added per well; subsequently, it was covered with aluminum foil to prevent exposure to light. After incubation for 6-h at 37 °C, fluorescence readings were acquired on a spectrofluorimeter (Fluoroskan Ascent, Thermo Fisher Scientific, Oceanside, CA, USA) with a 485 nm excitation wavelength and a 518 nm emission wavelength.
(§3) The IC50 values of ATR, DA, CF, and AV were established from the in vitro growth inhibition by nonlinear regression curve fit on a GraphPad Prism (GraphPad Software Inc., San Diego, CA, USA). […] The significant variations (p < 0.05) among group mean values on parasitemia and one-way ANOVA Tukey’s test in GraphPad Prism version 5.0 was used to analyze hematology profiles in mice infected with B. microti.

B. bovis = assay: as above; type: cell-based; conditions: Bos taurus, 96 h, 4 days culture, mean of triplicate experiments
Experimental: as §1, §2, §3

B. bigemina = assay: as above; type: cell-based; conditions: 96 h, 4 days culture, mean of triplicate experiments
Experimental: as §1, §2, §3

B. divergens = assay: as above; type: cell-based; conditions: 96 h, 4 days culture, mean of triplicate experiments
Experimental: as §1, §2, §3

T. equi = assay: as above; type: cell-based; conditions: 96 h, 4 days culture, mean of triplicate experiments
Experimental: as §1, §2, §3

HFFs = assay: Cytotoxicity assay (CCK-8 cell viability); type: cell-based, human; conditions: for EC50: Homo sapiens, HFFs, 24 h, CCK-8
Experimental: (§4) Cultures of human foreskin fibroblast (HFF; HFF-1 ATCC® SCRC-1041™), Madin–Darby bovine kidney (MDBK; ECACC) and mouse embryonic fibroblast (NIH/3T3; ATCC® CRL-1658™) cells were retrieved from −80 °C stock and cultured continuously at 37 °C under atmosphere 5% CO2 in our laboratory. The NIH/3T3 and HFFs cells were maintained in Dulbecco Modified Eagle’s Medium (DMEM; Gibco, Grand Island, NY, USA), while MDBK cell line grown in Minimum Essential Medium Eagle (MEM; Gibco). Each medium was treated with 0.5% penicillin/streptomycin (Gibco), 10% inactivated fetal bovine serum and 2 mM glutamine. Every 72 to 96 h, the medium was replaced, and once 80% confluence was reached, the cell collection was performed by sub-culture protocol. To confirm the absence of mycoplasma contamination, 4,6-diamidino-2-phenylindole dihydrochloride stain (Sigma-Aldrich) was used.
(§5) The cell viability test was conducted in a 96-well plate as described elsewhere. Briefly, an aliquot of (100 µL) cells was implanted at a concentration of 5 × 10^4 cells/mL in DMEM or MEM with fetal bovine serum and incubated overnight under atmosphere 5% CO2 at 37 °C for attachment. Using two-fold dilutions, aliquots (10 µL) of drugs were added in triplicate per well to attain final concentrations of 50 to 1000 µM and further incubated for 24 h. The positive control wells containing cells mixed with the medium in 0.4% DMSO, whereas the negative control wells containing culture medium only. After a 24-h incubation, Cell Counting Kits-8 (CCK-8, 10 µL) was added to each well and then plate incubation was conducted for an additional 3 h and a microplate reader was used to assess the absorbance at 450 nm.

[1] = Hematology parameters (HGB, HCT, RBCs) in B. microti-infected treated mice; type: in vivo, BALB/c mice; parameters: HGB Mean: unit not given beside the values; RBCs Mean: unit not given here; conditions: DA 25, AV 20, ATR 25, ATR 12.5+DA 12.5, ATR 12.5+AV 10 mg/kg BW, days 4-8 p.i.
NIH/3T3 cells = assay: Cytotoxicity assay (CCK-8 cell viability); type: cell-based, mouse; conditions: for EC50: Mus musculus, read-out: EC50 NIH/3T3
Experimental: as §4, §5

B. microti = conditions: for peak parasitemia level: peak on day 10; for peak parasitemia level / first day on which parasitemia was not detected by microscopy: B. microti-infected BALB/c mice; for first day on which parasitemia was not detected by microscopy: DA 25, AV 20, ATR 25, ATR 12.5+DA 12.5, ATR 12.5+AV 10 mg/kg BW
[2] = EC50 NIH/3T3 / IC50 B. bigemina
[3] = EC50 NIH/3T3 / IC50 B. divergens
[4] = ATR 25 mg/kg i.p., days 4-8 p.i.

COC(=O)c1c(C)cc(OC(=O)c2c(C)cc(O)c(C=O)c2O)c(C)c1O [ATR, Atranorin]
IC50 (B. caballi): 46.6 ± 2.5 µM
IC50 (B. bovis): 98.4 ± 4.2 µM
IC50 (B. bigemina): 64.5 ± 3.9 µM
IC50 (B. divergens): 45.2 ± 5.9 µM
IC50 (T. equi): 71.3 ± 2.7 µM
Selective Index HFFs (HFFs; EC50 HFFs / IC50 B. bigemina): 11.6
Selective Index HFFs (HFFs; EC50 HFFs / IC50 B. bovis): 7.6
Selective Index HFFs (HFFs; EC50 HFFs / IC50 B. caballi): 16.1
Selective Index HFFs (HFFs; EC50 HFFs / IC50 B. divergens): 16.6
Selective Index HFFs (HFFs; EC50 HFFs / IC50 T. equi): 10.6
EC50 (HFFs): 750 ± 15 µM
HCT Mean ([1]; day 0): 46.575%
HGB Mean ([1]; day 0): 14.8
RBCs Mean ([1]; day 0): 942.625
HCT Mean ([1]; day 4): 44.4%
HGB Mean ([1]; day 4): 13.64
RBCs Mean ([1]; day 4): 928
HCT Mean ([1]; day 8): 38%
HGB Mean ([1]; day 8): 10
RBCs Mean ([1]; day 8): 610
HCT Mean ([1]; day 12): 28.925%
HGB Mean ([1]; day 12): 10.05
RBCs Mean ([1]; day 12): 557
HCT Mean ([1]; day 16): 36.65%
HGB Mean ([1]; day 16): 11.425
RBCs Mean ([1]; day 16): 637.75
HCT Mean ([1]; day 20): 39.5%
HGB Mean ([1]; day 20): 11.95
RBCs Mean ([1]; day 20): 679.75
HCT Mean ([1]; day 24): 40.2%
HGB Mean ([1]; day 24): 12.725
RBCs Mean ([1]; day 24): 830
HCT Mean ([1]; day 28): 43.2%
HGB Mean ([1]; day 28): 13.2
RBCs Mean ([1]; day 28): 898
HCT Mean ([1]; day 32): 45.2%
HGB Mean ([1]; day 32): 14.8
RBCs Mean ([1]; day 32): 942.625
HCT Mean ([1]; day 36): 47.2%
HGB Mean ([1]; day 36): 14.99
RBCs Mean ([1]; day 36): 982.625
Selective Index NIH/3T3 (NIH/3T3 cells; [2]): 9.9
Selective Index NIH/3T3 (NIH/3T3 cells; EC50 NIH/3T3 / IC50 B. bovis): 6.5
Selective Index NIH/3T3 (NIH/3T3 cells; EC50 NIH/3T3 / IC50 B. caballi): 13.7
Selective Index NIH/3T3 (NIH/3T3 cells; [3]): 14.0
Selective Index NIH/3T3 (NIH/3T3 cells; EC50 NIH/3T3 / IC50 T. equi): 9
EC50 (NIH/3T3 cells; NIH3T3, 24 h): 638 ± 12 µM
inhibition of B. microti multiplication in mice (B. microti; [4]): 68.17%
peak parasitemia level (B. microti; [4]): 19.92%
first day on which parasitemia was not detected by microscopy (B. microti; days 4-8 p.i.): 26 day p.i.
toxic signs in mice due to treatment (B. microti; mouse, in vivo): no obvious toxic signs or promoted anemia

O=C1C(O)=C([C@H]2CC[C@H](c3ccc(Cl)cc3)CC2)C(=O)c2ccccc21 [AV, atovaquone]
IC50 (B. caballi): 0.1 ± 0.01 µM
IC50 (B. bovis): 0.04 µM
IC50 (B. bigemina): 0.7 ± 0.04 µM
IC50 (B. divergens): 0.04 µM
IC50 (T. equi): 0.09 ± 0.06 µM
Selective Index HFFs (HFFs; EC50 HFFs / IC50 B. bigemina): ˃142.7
Selective Index HFFs (HFFs; EC50 HFFs / IC50 B. bovis): ˃2564
Selective Index HFFs (HFFs; EC50 HFFs / IC50 B. caballi): ˃980.4
Selective Index HFFs (HFFs; EC50 HFFs / IC50 B. divergens): ˃2631
Selective Index HFFs (HFFs; EC50 HFFs / IC50 T. equi): ˃1052
EC50 (HFFs): > 100 µM
HCT Mean ([1]; day 0): 47.48%
HGB Mean ([1]; day 0): 14.44
RBCs Mean ([1]; day 0): 1060.62
HCT Mean ([1]; day 4): 45%
HGB Mean ([1]; day 4): 13.64
RBCs Mean ([1]; day 4): 984.75
HCT Mean ([1]; day 8): 44%
HGB Mean ([1]; day 8): 14.34
RBCs Mean ([1]; day 8): 878
HCT Mean ([1]; day 12): 40%
HGB Mean ([1]; day 12): 12.6
RBCs Mean ([1]; day 12): 850
HCT Mean ([1]; day 16): 43%
HGB Mean ([1]; day 16): 13.96
RBCs Mean ([1]; day 16): 830.25
HCT Mean ([1]; day 20): 45%
HGB Mean ([1]; day 20): 14.92
RBCs Mean ([1]; day 20): 844
HCT Mean ([1]; day 24): 46%
HGB Mean ([1]; day 24): 15.4
RBCs Mean ([1]; day 24): 850
HCT Mean ([1]; day 28): 48%
HGB Mean ([1]; day 28): 15.64
RBCs Mean ([1]; day 28): 984.75
HCT Mean ([1]; day 32): 50%
HGB Mean ([1]; day 32): 16
RBCs Mean ([1]; day 32): 1000.62
HCT Mean ([1]; day 36): 51%
HGB Mean ([1]; day 36): 16.44
RBCs Mean ([1]; day 36): 1060.62
Selective Index NIH/3T3 (NIH/3T3 cells; [2]): ˃142.7
Selective Index NIH/3T3 (NIH/3T3 cells; EC50 NIH/3T3 / IC50 B. bovis): ˃2564
Selective Index NIH/3T3 (NIH/3T3 cells; EC50 NIH/3T3 / IC50 B. caballi): ˃980.4
Selective Index NIH/3T3 (NIH/3T3 cells; [3]): ˃2631
Selective Index NIH/3T3 (NIH/3T3 cells; EC50 NIH/3T3 / IC50 T. equi): ˃1052
EC50 (NIH/3T3 cells; NIH3T3, NIH/3T3 cells, 24 h, CCK-8): > 100 µM
peak parasitemia level (B. microti; AV at 20 mg/kg, days 4-8 p.i.): 10.99%
first day on which parasitemia was not detected by microscopy (B. microti; days 4-8 p.i.): 18 day p.i.
